Measured values published in patent publication EP3569594A1, “METHOD FOR THE PREPARATION OF SUBSTITUTED PYRAZINES” (Universität Graz, priority 2018, dated 2019).

What was measured:
FOYE [1] = assay: Photometric activity measurement by consumption of coenzyme NAD(P)H/H+ with diketone oximes; assay type: biochemical, Ferrovum sp. JA12
Excerpt: Zur Untersuchung, ob die enzymatische Katalyse auch mit 2-Oximino-1,3-diketonen anstelle der 2-Oximinoacetessigsäure-Derivate als Substrate abläuft, d.h. ob das Carbonsäure-Ende des Substratmoleküls für die Reaktion erforderlich ist, wurden die drei nachstehend dargestellten Diketon-Oxime (3a), (3b) und (3c) [drawing 12] auf analoge Weise zu den obigen Synthesebeispielen 7 bis 13 aus den entsprechenden Diketon-Ausgangsprodukten (Acetylaceton, ω-Acetylacetophenon und 1-Isopropylacetylaceton) hergestellt und auf analoge Weise zu den obigen Beispielen 7 und 8 mit FOYE als En-Reduktase umgesetzt.
Während der Reaktionen wurden photometrische Aktivitätsmessungen durchgeführt, bei denen die Enzymaktivität anhand des Verbrauchs des Coenzyms NAD(P)H/H^+ bestimmt wurde. Die Ergebnisse sind in nachstehender Tabelle 3 angeführt. Tabelle 3: Reaktivitätsscreening mit den Diketon-Oximen (3a) bis (3c)

XenA = assay: Reactivity screening of oximes with purified ene-reductase, conversion by GC-FID; assay type: biochemical, Pseudomonas putida II-B; conditions: XenA 100 µg/ml, 10 mM Oxim, 0,5 mM NAD(P)H/H+, Glucose/GDH, Tris-HCl pH 7,5, 30 °C, 24 h
Excerpt: (§1) Die En-Reduktase ist zwar nicht speziell eingeschränkt, ist aber vorzugsweise aus der OYE-Familie, d.h. der Familie der "Old Yellow Enzymes" ausgewählt, da Vertreter dieser Gruppe von Enzymen allesamt gute Ergebnisse geliefert haben. Noch bevorzugter ist die ER aus den folgenden bereits getesteten Enzymen ausgewählt: • OYE1 von Saccharomyces pastorianus, • OYE2 von Saccharomyces cerevisiae, • OYE3 von Saccharomyces cerevisiae, • 12-Oxophytodienoat-Reduktase 3 (OPR3) von Arabidopsis thaliana, • xenobiotischer Reduktase A (XenA) von Pseudomonas putida II-B und • En-Reduktase von Ferrovum sp. JA12 (FOYE).
(§2) Plasmide, die jeweils ein für eine der En-Reduktasen OYE1, OYE2, OYE3, OPR3, XenA und FOYE kodierendes Gen enthielten, wurden in chemisch kompetente E. coli BL21(DE3)-Zellen transformiert. Die sechs Über-Nacht-Kulturen wurden in LB-Medium, das mit 50 µg/ml Kanamycin (für OYE1-3 und FOYE) oder 100 µg/ml Ampicillin (für OPR3 und XenA) ergänzt worden war, bei 30 °C und 120 U/min kultiviert. Hauptkulturen (1 l LB-Medium, 50 µg/ml Kanamycin oder 100 µg/ml Ampicillin) wurden mit je 3 ml der entsprechenden Über-Nacht-Kultur inokuliert und bei 37 °C, 120 U/min geschüttelt, bis die OD600 0,6 bis 0,8 erreichte. Die Proteinproduktion wurde durch Zusatz von Isopropyl-β-D-thiogalactopyranosid (IPTG) (0,2 mM für OYE1-3 und XenA, 1 mM für OPR3 und 0,05 mM für FOYE) induziert und bei 20 °C über Nacht (für OYE1-3 und FOYE) oder bei 37 °C 4 h lang (für XenA und OPR3) geschüttelt. Die Zellen wurden durch Zentrifugation (5000 U/min, 4 °C, 20 min) geerntet, das Pellet wurde mit 100 mM Tris-HCI-Puffer pH 7,5 (25 ml) gewaschen und bei -20 °C gelagert.
(§3) Als Modellreaktion für die Feststellung der Enzymaktivität wurde im Handel erhältlicher 2-Oximinoacetessigsäureethylester (1a) mit den sechs in den Synthesebeispielen 1 bis 6 hergestellten En-Reduktasen (ER) in analytischem Maßstab umgesetzt. Dazu wurden in ein 2-ml-Eppendorf-Röhrchen 100 µg/ml der jeweiligen gereinigten En-Reduktase, 0,5 mM NAD(P)H/H^+, 50 mM Glucose und 1 mg/ml GDH in 100 mM Tris-HCl-Puffer, pH 7,5, gelöst. Die Reaktionen wurden durch Zugabe von 10 mM Oxim (1a) (aus einer 200 mM Stammlösung in DMSO) auf ein Endvolumen von 500 µl gestartet und 24 h lang bei 30 °C, 120 U/min geschüttelt. Danach wurden die Reaktionsgemische jeweils mit 1 ml Chloroform extrahiert, die organische Phase wurde über MgSO4 getrocknet und mittels GC-FID analysiert und der Umsatz anhand der Peakflächenprozentsätze ermittelt. Wie aus nachstehender Tabelle 1 hervorgeht, wurde nach 24 h in allen sechs Fällen praktisch vollständiger Umsatz festgestellt. Tabelle 1: Anfängliches Reaktivitätsscreening mit Modelloxim (1a)
(§4) Zur Ermittlung, welche anderen Derivate der 2-Oximinoacetessigsäure mittels enzymatischer Katalyse durch die sechs in den Synthesebeispielen 1 bis 6 hergestellten En-Reduktasen (1) zu Pyrazindicarbonsäure-Derivaten (2) umsetzbar sein würden, wurden die für die Beispiele 1 bis 6 beschriebene Vorgangsweise unter Verwendung der in den Synthesebeispielen 7 bis 13 hergestellten Oxime (1b) bis (1h) anstelle von (1a) wiederholt. Überraschenderweise wurde in sämtlichen Fällen nach 24 h praktisch vollständiger Umsatz beobachtet, wie aus nachstehender Tabelle 2 hervorgeht. Tabelle 2: Reaktivitätsscreening mit den Oximen (1b) bis (1h)

FOYE [2] = assay: as above; assay type: biochemical, Ferrovum sp. JA12; conditions: FOYE 100 µg/ml, 10 mM Oxim, 0,5 mM NAD(P)H/H+, Glucose/GDH, Tris-HCl pH 7,5, 30 °C, 24 h
Excerpt: as §1, §2, §3, §4

OPR3 = molecular target: T1, OPR3 (Arabidopsis thaliana, UniProt Q9FUP0); assay: as above; assay type: biochemical; conditions: OPR3 100 µg/ml, 10 mM Oxim, 0,5 mM NAD(P)H/H+, Glucose/GDH, Tris-HCl pH 7,5, 30 °C, 24 h
T1 construct: made in house; host or cells: E. coli BL21(DE3)
Excerpt: as §1, §2, §3, §4

OYE3 = molecular target: T2, OYE3 (Saccharomyces cerevisiae, UniProt P41816); assay: as above; assay type: biochemical; conditions: OYE3 100 µg/ml, 10 mM Oxim, 0,5 mM NAD(P)H/H+, Glucose/GDH, Tris-HCl pH 7,5, 30 °C, 24 h
T2 construct: made in house; host or cells: E. coli BL21(DE3)
Excerpt: as §1, §2, §3, §4

OYE1 = molecular target: T3, OYE1 (Saccharomyces pastorianus, UniProt Q02899); assay: as above; assay type: biochemical; conditions: OYE1 100 µg/ml, 10 mM Oxim, 0,5 mM NAD(P)H/H+, Glucose/GDH, Tris-HCl pH 7,5, 30 °C, 24 h
T3 construct: made in house; host or cells: E. coli BL21(DE3)
Excerpt: as §1, §2, §3, §4

OYE2 = molecular target: T4, OYE2 (Saccharomyces cerevisiae, UniProt Q03558); assay: as above; assay type: biochemical; conditions: OYE2 100 µg/ml, 10 mM Oxim, 0,5 mM NAD(P)H/H+, Glucose/GDH, Tris-HCl pH 7,5, 30 °C, 24 h
T4 construct: made in house; host or cells: E. coli BL21(DE3)
Excerpt: as §1, §2, §3, §4

T4 sequence (Q03558 whole entry): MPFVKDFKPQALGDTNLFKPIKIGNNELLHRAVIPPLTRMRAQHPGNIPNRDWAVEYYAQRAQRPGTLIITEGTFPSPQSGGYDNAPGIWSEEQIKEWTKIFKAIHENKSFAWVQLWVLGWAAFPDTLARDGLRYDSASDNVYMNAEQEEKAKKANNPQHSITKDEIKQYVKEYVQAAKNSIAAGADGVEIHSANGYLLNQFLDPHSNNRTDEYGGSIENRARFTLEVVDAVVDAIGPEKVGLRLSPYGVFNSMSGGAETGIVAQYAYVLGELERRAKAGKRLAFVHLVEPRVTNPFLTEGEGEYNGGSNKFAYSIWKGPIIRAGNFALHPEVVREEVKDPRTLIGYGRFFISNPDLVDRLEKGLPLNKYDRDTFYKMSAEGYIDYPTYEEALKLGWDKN
T3 sequence (Q02899 whole entry): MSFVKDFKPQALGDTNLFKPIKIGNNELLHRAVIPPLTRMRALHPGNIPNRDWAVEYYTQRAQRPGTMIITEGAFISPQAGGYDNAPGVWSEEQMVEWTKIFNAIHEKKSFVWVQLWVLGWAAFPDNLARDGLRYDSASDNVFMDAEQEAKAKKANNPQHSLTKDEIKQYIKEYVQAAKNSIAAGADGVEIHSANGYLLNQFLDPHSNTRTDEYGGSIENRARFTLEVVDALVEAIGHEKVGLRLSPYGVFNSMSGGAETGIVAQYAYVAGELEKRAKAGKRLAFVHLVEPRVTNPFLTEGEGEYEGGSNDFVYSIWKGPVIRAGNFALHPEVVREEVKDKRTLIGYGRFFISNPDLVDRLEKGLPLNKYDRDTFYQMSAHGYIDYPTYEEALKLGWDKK
T2 sequence (P41816 whole entry): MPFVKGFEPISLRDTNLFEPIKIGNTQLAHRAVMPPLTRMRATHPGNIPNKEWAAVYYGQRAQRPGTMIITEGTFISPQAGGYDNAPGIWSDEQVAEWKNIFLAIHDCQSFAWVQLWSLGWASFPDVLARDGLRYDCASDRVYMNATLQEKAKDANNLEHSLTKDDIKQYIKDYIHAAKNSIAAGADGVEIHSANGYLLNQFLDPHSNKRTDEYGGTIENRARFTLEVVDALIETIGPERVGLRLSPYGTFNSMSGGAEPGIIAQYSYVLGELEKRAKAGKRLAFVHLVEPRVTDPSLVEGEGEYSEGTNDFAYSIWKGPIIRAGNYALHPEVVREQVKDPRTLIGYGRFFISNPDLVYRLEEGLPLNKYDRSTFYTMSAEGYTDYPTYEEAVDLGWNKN
T1 sequence (Q9FUP0 whole entry): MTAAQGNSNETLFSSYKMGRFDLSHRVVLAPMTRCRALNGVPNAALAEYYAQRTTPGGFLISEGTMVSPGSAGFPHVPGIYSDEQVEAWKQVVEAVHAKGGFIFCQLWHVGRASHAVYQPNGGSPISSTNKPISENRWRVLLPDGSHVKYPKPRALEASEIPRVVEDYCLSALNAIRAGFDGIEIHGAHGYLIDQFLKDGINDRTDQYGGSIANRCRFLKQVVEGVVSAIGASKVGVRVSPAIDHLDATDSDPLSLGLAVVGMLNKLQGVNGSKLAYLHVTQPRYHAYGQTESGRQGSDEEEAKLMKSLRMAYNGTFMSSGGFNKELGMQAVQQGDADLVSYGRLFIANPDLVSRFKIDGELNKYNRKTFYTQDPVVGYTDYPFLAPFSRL

Row | Aktivität (FOYE [1]) | Umsatz (XenA) | Umsatz (FOYE [2]) | Umsatz (OPR3) | Umsatz (OYE3) | Umsatz (OYE1) | Umsatz (OYE2) | Structure (SMILES)
1 | 6 U/mg |  |  |  |  |  |  | CC(=O)C(=NO)C(C)=O [Oxim 3a, 3-Oximinoacetylaceton]
2 | 18 U/mg |  |  |  |  |  |  | CC(=O)C(=NO)C(=O)c1ccccc1 [Oxim 3b, α-Acetyl-α-oximinoacetophenon]
3 | 23 U/mg |  |  |  |  |  |  | CC(=O)C(=NO)C(=O)CC(C)C [Oxim 3c, 1-Isopropyl-3-oximinoacetylaceton]

Further lines, the compound ahead of its results:

Row | Structure (SMILES) | Aktivität (FOYE [1]) | Umsatz (XenA) | Umsatz (FOYE [2]) | Umsatz (OPR3) | Umsatz (OYE3) | Umsatz (OYE1) | Umsatz (OYE2)
4 | CC(=O)C(=NO)C(=O)Nc1ccccc1 [(1b), 2-Oximinoacetessigsäure-N-phenylamid] |  | > 99% | > 99% | > 99% | > 99% | > 99% | > 99%
5 | CC(=O)C(=NO)C(=O)OCc1ccccc1 [(1e), 2-Oximinoacetessigsäurebenzylester] |  | > 99% | > 99% | > 99% | > 99% | > 99% | > 99%
6 | COCCOC(=O)C(=NO)C(C)=O [(1g), 2-Oximinoacetessigsäure-2-methoxyethylester] |  | > 99% | > 99% | > 99% | > 99% | > 99% | > 99%
7 | CCCCOC(=O)C(=NO)C(C)=O [(1d), 2-Oximinoacetessigsäurebutylester] |  | > 99% | > 99% | > 99% | > 99% | > 99% | > 99%
8 | CCCCCCCOC(=O)C(=NO)C(C)=O [(1f), 2-Oximinoacetessigsäureheptylester] |  | > 99% | > 99% | > 99% | > 99% | > 99% | > 99%
9 | C=CCOC(=O)C(=NO)C(C)=O [(1c), 2-Oximinoacetessigsäureallylester] |  | > 99% | > 99% | > 99% | > 99% | > 99% | > 99%
10 | CCOC(=O)C(=NO)C(=O)CC [(1h), 4-Methyl-2-oximinoacetessigsäureethylester] |  | > 99% | > 99% | > 99% | > 99% | > 99% | > 99%
11 | CCOC(=O)C(=NO)C(C)=O [(1a), 2-Oximinoacetessigsäureethylester, reference compound] |  | > 99% | > 99% | > 99% | > 99% | > 99% | > 99%
